Holding throughout (assay type): biochemical
Test [1] concerns protease isolated from Pseudomonas aeruginosa MCM B-327. Nature of the test: Effect of metal ions on protease activity. Conditions: Tris-HCl pH 8.0, 37° C.; for Enzyme activity: None = 42.77. As for the experimental part: This example illustrates the effect of metal ions on activity of the protease isolated from Pseudomonas aeruginosa MCM B-327 when grown in soybean meal−tryptone (HiMedia) medium. The cell free supernatant was salt precipitated and used for this study in Tris-HCl buffer, pH 8.0 at 37° C.

For test [2] the test system is unchanged. Kind of test: Effect of organic solvents on protease activity. Conditions: for Enzyme activity: organic solvent 50% v/v, 30 min of incubation, Tris-HCl pH 8.0, 37° C., None = 42.77; for inhibition of the enzyme: 50% v/v, after 30 min of incubation. As for the experimental part: The cell free supernatant was salt precipitated and used for this study in Tris-HCl buffer, pH 8.0 at 37° C.

The test system is the same in test [3]. Nature of the test: Effect of ingredients of detergents on protease activity. As to conditions: for Enzyme activity: incubated 30 min prior to assay, Tris-HCl pH 8.0, 37° C., None = 42.77; for effect of surfactant on protease activity (in words): 1%. As for the experimental part:
This example illustrates the effect of ingredients of detergents on activity of the protease isolated from Pseudomonas aeruginosa MCM B-327 when grown in soybean meal−tryptone (HiMedia) medium. The cell free supernatant was salt precipitated and used for this study in Tris-HCl buffer, pH 8.0 at 37° C. The enzyme and ingredients of detergent were incubated for 30 min prior to enzyme assay. The enzyme was stable in detergent ingredients while 20% inhibited by SDS.

Test [4] has the same test system. Kind of test: Effect of inhibitors on protease activity. Conditions: for Enzyme activity: incubated 30 min, None = 42.77. Here is the method: This example illustrates the effect of inhibitors on activity of the protease isolated from Pseudomonas aeruginosa MCM B-327 when grown in soybean meal−tryptone (HiMedia) medium. The cell free supernatant was salt precipitated and used for this study in Tris-HCl buffer, pH 8.0 at 37° C. The enzyme and the inhibitor were incubated for 30 min prior to enzyme assay.

Setting [5] is: inhibitor 1 mM, Tris-HCl pH 8.0, 37° C.

Results on 25 compounds are retold here after US20080220499A1, “NOVEL PROTEASE FOR INDUSTRIAL APPLICATIONS” (priority 2006, published 2008).

Consider `[Cl][Hg][Cl]` [HgCl2], for which the Enzyme activity in test [1] (HgCl2 at 1 mM) is listed as 9.83 U/mg precipitate; in test [1] (metal ion at 5 mM), 6.84 U/mg precipitate. For the same compound, in test [1], the “effect of metal ion on enzyme activity (in words)” value (from here on “effect of metal ion”) was “affected the enzyme activity considerably”.
Take `CCCCCC` [n-hexane]: in test [2], the Enzyme activity was determined as 26.94 U/mg precipitate.
`CCCCC=O` [1-pentanone] gave an Enzyme activity in test [2] of 11.54 U/mg precipitate.
Still for that read-out and setting: next, `CC(C)CC(C)(C)C` [Isooctane]: 28.65 U/mg precipitate.
Take `O=S(=O)([O-])[O-].[Zn+2]` [ZnSO4]: the “effect of metal ion” value in test [1] is “affected the enzyme activity considerably”. In test [1] (metal ion at 5 mM), this compound came in with an Enzyme activity of 12.40 U/mg precipitate.
`O=P(O)(O)OP(=O)(O)OP(=O)(O)O` [Sodium tripolyphosphate] yielded an Enzyme activity in test [3] (detergent ingredient 1%) of 44.05 U/mg precipitate.
Turning to m-p-xylene, in test [2], the Enzyme activity was 28.65 U/mg precipitate.
Regarding `O=C(O)CN(CCN(CC(=O)O)CC(=O)O)CC(=O)O` [EDTA, Ethylenediamine tetra acetic acid], the Enzyme activity in test [4] (inhibitor 2 mM) was 32.93 U/mg precipitate; in test [4] (inhibitor 5 mM) it was 30.36 U/mg precipitate.
For `O=S(=O)([O-])[O-].[Fe+2]` [FeSO4], in test [1], the “effect of metal ion” value is recorded as “resistant to inhibition”. The Enzyme activity in test [1] (metal ion at 5 mM) is recorded as 37.64 U/mg precipitate.
Take `O[C@@H](CS)[C@@H](O)CS` [DTT, dithiothretol]: the “inhibition of the enzyme (in words)” value in test [4] (1 & 5 mM) is recorded as “completely inhibited”. For the same compound, the Enzyme activity in test [4] (setting [5]) and in test [4] (inhibitor 5 mM) was 0 U/mg precipitate in each case.
For the compound `CCCCCCCCCCCCOS(=O)(=O)[O-].[Na+]` [SDS], in test [3] (detergent ingredient 1%, 30 min), the “inhibition of the enzyme” value worked out at 20%. The same compound registered an Enzyme activity in test [3] (detergent ingredient 1%) of 34.21 U/mg precipitate.
Turning to `CCCCCCCC/C=C\CCCCCCCC(=O)OCCOCC(OCCO)C1OCC(OCCO)C1OCCO` (centres unmarked) [Tween 80], the “effect of surfactant on protease activity (in words)” value in test [3] (30 min) was “no inhibitory effect”. The Enzyme activity in test [3] (detergent ingredient 1%) came to 43.62 U/mg precipitate.
`CC(C)=O` [Acetone]: the Enzyme activity in test [2] amounted to 13.68 U/mg precipitate.
Consider `Cc1ccccc1` [Toluene], for which, in test [2], the “inhibition of the enzyme” value was 51% and the Enzyme activity is on record as 20.95 U/mg precipitate.
The corresponding values for `CCO` [Ethanol] are 91% and 3.84 U/mg precipitate.
Take `[Ca+2].[Cl-].[Cl-]` [CaCl2]: the “effect of metal ion” value in test [1] was “resistant to inhibition”. Moreover, the Enzyme activity in test [1] (metal ion at 5 mM) was determined as 42.34 U/mg precipitate.
Regarding `NC(=O)CI` [Iodoacetamide], the Enzyme activity worked out at 44.05 U/mg precipitate in test [4] (setting [5]) and 43.62 U/mg precipitate in test [4] (inhibitor 5 mM).
As to `c1ccccc1` [Benzene], the Enzyme activity in test [2] was determined as 11.54 U/mg precipitate.
In the case of `O=S(=O)(F)Cc1ccccc1` [PMSF, Phenyl methyl sulphonyl fluoride], the values for the Enzyme activity in test [4] (setting [5]) and in test [4] (inhibitor 5 mM) were 40.20 U/mg precipitate and 31.65 U/mg precipitate, respectively.
`CO` [Methanol] showed an Enzyme activity in test [2] of 14.11 U/mg precipitate.
Triton X100: in test [3] (30 min), the “effect of surfactant on protease activity (in words)” value was “no inhibitory effect”. Moreover, in test [3] (detergent ingredient 1%), the Enzyme activity worked out at 41.49 U/mg precipitate.
Turning to `[Cl-].[Na+]` [NaCl], the “effect of metal ion” value in test [1] is recorded as “resistant to inhibition”. This compound came in with an Enzyme activity in test [1] (metal ion at 5 mM) of 41.06 U/mg precipitate.
On the same counts, the results for `O=S(=O)([O-])[O-].[Cu+2]` [CuSO4] are “affected the enzyme activity considerably” and 10.69 U/mg precipitate.
On to `O=S(=O)([O-])[O-].[Mn+2]` [MnSO4], for which the “effect of metal ion” value in test [1] is on record as “resistant to inhibition”. Further, in test [1] (metal ion at 5 mM), the Enzyme activity came to 37.21 U/mg precipitate.
As for `O=S(=O)([O-])[O-].[Mg+2]` [MgSO4], in test [1], the “effect of metal ion” value is recorded as “resistant to inhibition”. This compound had an Enzyme activity in test [1] (metal ion at 5 mM) of 42.77 U/mg precipitate.
